Our source for the Ki values is EP0942911B1, “BENZOPYRANOPYRROLE AND BENZOPYRANOPYRIDINE ALPHA-1 ADRENERGIC COMPOUNDS” (Abbott Laboratories, priority 1996, dated 1998).

Structures can show the parent of a compound that is named as a salt.

Holding throughout (assay): biochemical
Experiment [1] addresses T1, α-1a adrenoreceptor (Bos taurus, UniProt P18130).
T1 sequence (P18130 1-466): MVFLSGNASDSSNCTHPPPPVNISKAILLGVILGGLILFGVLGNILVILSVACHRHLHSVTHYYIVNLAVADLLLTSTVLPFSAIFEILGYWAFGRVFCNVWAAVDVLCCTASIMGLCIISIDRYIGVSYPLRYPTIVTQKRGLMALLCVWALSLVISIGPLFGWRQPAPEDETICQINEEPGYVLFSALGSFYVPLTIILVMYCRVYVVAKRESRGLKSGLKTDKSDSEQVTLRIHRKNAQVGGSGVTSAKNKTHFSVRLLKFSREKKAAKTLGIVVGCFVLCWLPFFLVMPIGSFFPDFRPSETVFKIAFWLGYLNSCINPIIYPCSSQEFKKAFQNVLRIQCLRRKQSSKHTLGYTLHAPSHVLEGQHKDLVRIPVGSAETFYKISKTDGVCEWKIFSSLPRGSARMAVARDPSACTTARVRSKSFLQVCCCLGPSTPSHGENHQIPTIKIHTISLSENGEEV
It is filed as binding, bovine. The conditions noted are these: [3H]-prazosin radioligand; cloned receptor in LTK cell membranes; read-out: Radioligand Binding (Ki, nM) 1a (Bovine). The gist of the method: (§1)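 Affinities are from radioligand binding on membranes of mouse LTK fibroblast clones stably expressing each cloned α-1 subtype; rat submaxillary gland served as native α-1A tissue.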

Experiment [2] deals with T2, α-1d adrenoreceptor (Rattus norvegicus, UniProt P23944).
T2 sequence (P23944 1-561): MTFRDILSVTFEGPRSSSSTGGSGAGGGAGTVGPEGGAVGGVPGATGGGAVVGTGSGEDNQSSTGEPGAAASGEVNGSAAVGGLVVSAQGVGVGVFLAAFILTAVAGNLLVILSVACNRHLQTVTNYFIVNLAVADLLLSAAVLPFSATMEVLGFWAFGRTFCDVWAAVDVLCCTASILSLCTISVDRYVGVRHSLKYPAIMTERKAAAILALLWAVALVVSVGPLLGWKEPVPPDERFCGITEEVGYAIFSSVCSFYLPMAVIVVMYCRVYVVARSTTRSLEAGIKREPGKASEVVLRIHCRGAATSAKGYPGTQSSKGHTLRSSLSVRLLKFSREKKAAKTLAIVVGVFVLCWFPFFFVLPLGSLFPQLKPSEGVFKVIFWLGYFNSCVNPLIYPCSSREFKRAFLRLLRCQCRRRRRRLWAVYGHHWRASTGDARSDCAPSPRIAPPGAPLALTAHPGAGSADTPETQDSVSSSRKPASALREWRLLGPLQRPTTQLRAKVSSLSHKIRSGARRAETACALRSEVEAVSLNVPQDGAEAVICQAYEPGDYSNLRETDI
In kind it is binding. To be noted: [3H]-prazosin radioligand; cloned receptor in LTK cell membranes; read-out: Radioligand Binding (Ki, nM) 1d (Rat). The gist of the method: as §1

In experiment [3] the target is T3, α-1A adrenoreceptor (rat submaxillary gland) (Rattus norvegicus, UniProt P43140).
T3 sequence (P43140 1-466): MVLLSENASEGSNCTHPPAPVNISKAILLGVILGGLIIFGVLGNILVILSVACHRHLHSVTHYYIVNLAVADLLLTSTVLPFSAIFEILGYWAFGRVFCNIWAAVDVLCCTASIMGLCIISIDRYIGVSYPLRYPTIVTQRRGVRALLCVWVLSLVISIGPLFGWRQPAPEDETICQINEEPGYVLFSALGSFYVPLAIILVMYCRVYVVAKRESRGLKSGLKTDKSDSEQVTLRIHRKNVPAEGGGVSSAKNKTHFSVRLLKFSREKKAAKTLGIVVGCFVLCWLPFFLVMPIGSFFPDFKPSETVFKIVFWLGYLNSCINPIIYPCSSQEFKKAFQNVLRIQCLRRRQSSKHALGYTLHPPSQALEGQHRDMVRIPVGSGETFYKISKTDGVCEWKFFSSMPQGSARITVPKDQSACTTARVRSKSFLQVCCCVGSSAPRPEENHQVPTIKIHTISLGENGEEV
It is filed as binding. To be noted: [3H]-prazosin radioligand; rat submaxillary gland membranes; read-out: Radioligand Binding (Ki, nM) 1A (Rat). An outline of the steps:
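Radioligand binding to α-1A sites in membrane homogenates of rat submaxillary gland, run after Greengrass and Bremner. Bound radioactivity counted by liquid scintillation.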

As usually defined, the Ki is the dissociation constant of the complex between target and ligand, obtained from inhibition or displacement. As for `COc1ccc2c(n1)sc1c(=O)n(CCCCN3C[C@H]4COc5cccc(OC)c5[C@@H]4C3)c(=O)[nH]c12` [Example 46, 3-[4-((3aS,9bR)-trans-9-Methoxy-1,2,3,3a,4,9b-hexahydro-[1]-benzopyrano[3,4-c]pyrrol-2-yl)butyl]-7-methoxy-pyrido[3',2':4,5]thieno[3,2-d]pyrimidine-2,4(1H,3H)-dione hydrochloride], the values for the Ki in experiment [1], in experiment [2] and in experiment [3] were 0.033 nM, 0.114 nM and 0.353 nM, respectively.

Take `COc1cccc2c1[C@@H]1CN(CCCCn3c(=O)[nH]c4c(sc5nc(Cl)ccc54)c3=O)C[C@H]1CO2` [Example 47, 3-[4-((3aS,9bR)-trans-9-Methoxy-1,2,3,3a,4,9b-hexahydro-[1]-benzopyrano[3,4-c]pyrrol-2-yl)butyl]-7-chloro-pyrido[3',2':4,5]thieno[3,2-d]pyrimidine-2,4(1H,3H)-dione hydrochloride]: the Ki amounted to 0.038 nM in experiment [1], 0.189 nM in experiment [2] and 0.245 nM in experiment [3].

`COc1cccc2c1[C@@H]1CN(CCCCn3c(=O)[nH]c4c(sc5ccnc(Cl)c54)c3=O)C[C@@H]1CO2` [Example 48, 3-[4-((3aR,9bR)-cis-9-Methoxy-1,2,3,3a,4,9b-hexahydro-[1]-benzopyrano[3,4-c]pyrrol-2-yl)butyl]-9-chloro-pyrido[3',4';4,5]thieno[3,2-d]pyrimidine-2,4(1H,3H)-dione hydrochloride]: the Ki was 0.048 nM in experiment [1], 0.467 nM in experiment [2] and 0.475 nM in experiment [3].

In the case of `COc1cccc2c1[C@@H]1CN(CCCCn3c(=O)[nH]c4c(sc5ccnc(OC)c54)c3=O)C[C@H]1CO2` [Example 49, 3-[4-((3aS,9bR)-trans-9-Methoxy-1,2,3,3a,4,9b-hexahydro-[1]-benzopyrano[3,4-c]pyrrol-2-yl)butyl]-9-methoxy-pyrido[3',4':4,5]thieno[3,2-d]pyrimidine-2,4(1H,3H)-dione fumarate], the Ki in experiment [1] was determined as 0.007 nM; in experiment [2] it was 0.019 nM; in experiment [3], 0.037 nM.

As for `COc1cccc2c1[C@@H]1CN(CCCCn3c(=O)[nH]c4c(sc5ncc(-c6ccccc6)nc54)c3=O)C[C@H]1CO2` [Example 50, 3-[4-((3aS,9bR)-trans-9-Methoxy-1,2,3,3a,4,9b-hexahydro-[1]-benzopyrano[3,4-c]pyrrol-2-yl)butyl]-8-phenyl-pyrazino[2',3':4,5]thieno[3,2-d]pyrimidine-2,4(1H,3H)-dione hydrochloride], the inhibition constant (Ki) in experiment [1] stood at 0.335 nM; in experiment [2], 0.391 nM; in experiment [3], 1.93 nM.

For the compound `COc1cccc2c1[C@@H]1CN(CCCCn3c(=O)[nH]c4c(sc5ccc(OC(C)C)nc54)c3=O)C[C@H]1CO2` [Example 51, 3-[4-((3aS,9bR)-trans-9-Methoxy-1,2,3,3a,4,9b-hexahydro-[1]-benzopyrano[3,4-c]pyrrol-2-yl)butyl]-8-isopropoxy-pyrido[2',3':4,5]thieno[3,2-d]pyrimidine-2,4(1H,3H)-dione hydrochloride], the Ki in experiment [1] amounted to 0.064 nM; in experiment [2], 0.371 nM; in experiment [3], 1.19 nM.

For `COc1cccc2c1[C@@H]1CN(CCCCn3c(=O)[nH]c4c(sc5c(Cl)nccc54)c3=O)C[C@@H]1CO2` [Example 53, 3-[4-((3aR,9bR)-cis-9-Methoxy-1,2,3,3a,4,9b-hexahydro-[1]-benzopyrano[3,4-c]pyrrol-2-yl)butyl]-6-chloro-pyrido[4',3':4,5]thieno[3,2-d]pyrimidine-2,4(1H,3H)-dione], the Ki in experiment [1] was 0.037 nM; in experiment [2], 0.664 nM; in experiment [3], 0.872 nM.

In the case of `COc1cccc2c1[C@@H]1CN(CCCCn3c(=O)[nH]c4c(sc5c(Cl)nccc54)c3=O)C[C@H]1CO2` [Example 54, 3-[4-((3aS,9bR)-trans-9-Methoxy-1,2,3,3a,4,9b-hexahydro-[1]-benzopyrano[3,4-c]pyrrol-2-yl)butyl]-6-chloro-pyrido[4',3':4,5]thieno[3,2-d]pyrimidine-2,4(1H,3H)-dione], the Ki in experiment [1] was found to be 0.187 nM; in experiment [2] it was 0.173 nM; in experiment [3], 0.077 nM.

With `COc1cccc2c1[C@@H]1CCN(CCCCn3c(=O)[nH]c4c(sc5cccnc54)c3=O)C[C@H]1CO2` [Example 95, 3-[4-((4aS,10bR)-trans-10-Methoxy-1,3,4,4a,5,10b-hexahydro-2H-[1]-benzopyrano[3,4-c]pyrido-3-yl)butyl]-pyrido[2',3':4,5]thieno[3,2-d]pyrimidine-2.4(1H,3H)-dione dihydrochloride], the inhibitory constant (Ki) is 1.8 nM in experiment [1], 23 nM in experiment [2] and 8.83 nM in experiment [3].

`COc1cccc2c1[C@@H]1CCN(CCCCn3c(=O)[nH]c4c(sc5ncc(Cl)nc54)c3=O)C[C@H]1CO2` [Example 97, 3-[4-((4aS,10bR)-trans-10-Methoxy-1,3,4,4a,5,10b-hexahydro-2H-[1]-benzopyrano[3,4-c]pyrido-3-yl)butyl]-8-chloro-pyrazino[2',3':4,5]thieno[3,2-d]pyrimidine-2,4(1H,3H)-dione dihydrochloride]: the inhibition constant Ki in experiment [1] worked out at 0.097 nM; in experiment [2] it was 0.247 nM; in experiment [3], 0.892 nM.
